System: M1 macrophages and M2 macrophages differentiated from RAW264.7 cells
Test: Identification of macrophage subtypes differentiated from mouse cell line RAW264.7
Format: cell-based
Settings: RAW264.7 derived M1 and M2
Experimental: The subtypes were identified by using the compound (1) in the same manner as in Example 1 except that the macrophage subtypes differentiated from the mouse bone marrow cells were changed to macrophage subtypes differentiated from a cell line established from mouse monocytic leukemia.
The culture of subtypes was performed with reference to NPL 9. Specifically, RAW264.7 cells purchased from American Type Culture Collection, that is, a cell line established from mouse monocytic leukemia, were subcultured several times, and the resultant cells were dispersed to a concentration of 3.3×10^4/mL in a D-MEM containing 10% FBS, 1% P/S and 1% MEM-NEAA, and 3.3×10^5 cells were seeded in a 100 mm dish. The cells were grown by incubation performed in the presence of 5% CO2 at 37° C. After 2 to 4 days, it was confirmed that an area of about to 70% of the bottom of the dish had been covered by the cells, the medium was then exchanged, and by adding 200 ng of interferon-γ and 1 μg of polyliposaccharide (both manufactured by Pepro Tech) to the medium, the cells were differentiated to the subtype M1. Besides, by adding 100 ng of IL-4, the cells were differentiated to the subtype M2. […]
A histogram was prepared by plotting fluorescence intensity obtained in the FITC channel on the abscissa and plotting the number of cells at each fluorescence intensity on the ordinate, which is shown in FIG. 9.

CCOC(=O)CCN1C(=O)/C(=C\c2ccc3c(c2)C2CCCC2N3CC)SC1=S (stereo not shown) [compound (1)]
subtype more strongly stained: the M1 macrophages were stained more strongly than the M2 macrophages

Reference: patent publication US10041937B2, “Macrophage identification agent, and identification method, sorting method, evaluation method, screening method and kit using the macrophage identifier agent” (CANON KABUSHIKI KAISHA, priority 2013, dated 2018)
